Where a name gives a salt, the structure may show the parent alone.

Data on 20 compounds can be found in US10676468B2, “N-(3-heteroarylaryl)-4-arylarylcarboxamides and analogs as hedgehog pathway inhibitors and use thereof” (IMPACT Therapeutics, Inc., priority 2012, dated 2020).

One assay concerns Hedgehog Signaling Pathway. The experiment in a line: Gli-Luc reporter gene cell assay in C3H10T1/2/Gli-Luc cells stimulated with Shh. In kind it is cell-based, mouse. To be noted: 30 nM Shh, 24 hours, luciferase activity (RLU), read-out: IC50 values of compounds that inhibit Hh pathway. An excerpt:
The Application of Reporter Gene Cell Assay for the Determination of the Inhibitory Activity of N-(3-(1H-benzo[d]imidazol-2-yl)-4-chlorophenyl)-2-methyl-4-((2S,6R)-2,6-dimethylmorpholino) benzamide and Analogs on Hedgehog Signaling Pathway
The binding of Sonic hedgehog (Shh) to its receptor Patched 1 initiates numerous intracellular signal transmission, and leads to the nuclear translocation of Gli and the elevated transcription of Gli target genes. When C3H10T1/2 cells are stably transfected with the Gli-Luc plasmids containing the luciferase gene under the control of Gli response element and stimulated with Shh, the expression of luciferase is elevated. Luciferase activity is indicative of the hedgehog signaling pathway activity. Therefore, the inhibitory activity of compounds on hedgehog signaling pathway can be measured using the luciferase activity when the transfected cells are stimulated with Shh.
The day before experiment, C3H10T1/2/Gli-Luc cells in log phase of growth were seeded into 96 well plate at a density of 20000 cells per well. The cells were maintained in DMEM (Hyclone) supplemented with 10% FBS (Hyclone) and incubated at 37° C. with 5% CO2 overnight. The compounds to be examined were diluted into 7 different concentrations by series of dilutions (⅓ and 1/10), and the eighth point of concentration is the DMSO control. Those solutions were diluted 100-fold in the fresh growth medium. The cells were taken out of the incubator and the medium of cultured cells were removed. Then, each well was added in an orderly manner with 80 μL of fresh growth medium, 20 μL of medium pre-dilution of positive compound and compounds to be tested, as well as 100 μL of growth medium containing 30 nM of Shh. The cells are returned to the incubator, and incubated for 24 hours.
Measurement of luciferase activity: After taking the 96 well plate out of the incubator, the supernatants were discarded and the cells were washed twice with PBS. Thereafter, each well was dispensed with 20 μL of lysis buffer (Promega E1531), and the plate was shaken for 30 min at room temperature. Following transferring 5 μL of cell lysate into 384 well plate (Greiner 781074), adding 25 μL of luciferase reaction buffer (Promega E1501) into each well and mixing the plate, the relative light unit (RLU) was immediately captured by VarioSkan Flash.
The data were analyzed with Prism 5 software (GraphPad). The relative light unit (RLU) was plotted against the log concentration of testing compound, and the obtained plot was fitted with non-linear curve fitting equation to calculate IC50 values. The curve fitting equation is Y (RLU)=Bottom+(Top−Bottom)/(1+10^((X−Log IC50))). X is the logarithm of concentration. Y is the measure of relative light unit (RLU).
The calculated IC50 value is a measurement of the inhibitory activity of compound to Hh pathway.
As for `C[C@@H]1CN(c2ccc(C(=O)Nc3ccc(Cl)c(-c4ncc(-c5ccsc5)[nH]4)c3)c(C(F)(F)F)c2)C[C@H](C)N1C` [Example 164, N-(3-(5-(thiophen-3-yl)-1H-imidazol-2-yl)-4-chlorophenyl)-2-(trifluoromethyl)-4-((3S,5R)-3,4,5-trimethylpiperazin-1-yl) benzamide Dihydrochloride], the IC50 was found to be 0.24 nM.
The same measure, in the same setting: as for `C[C@@H]1CN(c2ccc(C(=O)Nc3ccc(Cl)c(-c4nc5cscc5[nH]4)c3)c(C(F)(F)F)c2)C[C@H](C)N1C` [Example 200, N-(3-(1H-thieno[3,4-d]imidazol-2-yl)-4-chlorophenyl)-2-(trifluoromethyl)-4-((3S,5R)-3,4,5-trimethylpiperazin-1-yl) Benzamide], the figure is 0.28 nM.

Still in this assay, the particulars now being: Mus musculus, C3H 10T1/2, 24 h, 30 nM Shh, luciferase activity (RLU), read-out: IC50 values of compounds that inhibit Hh pathway.
As to `Cc1ccc(-c2cnc(-c3cc(NC(=O)c4ccc(N5C[C@@H](C)N(C)[C@@H](C)C5)cc4Cl)ccc3Cl)[nH]2)o1` [Example 151, N-(3-(5-(5-methylfuran-2-yl)-1H-imidazol-2-yl)-4-chlorophenyl)-2-chloro-4-((3S,5R)-3,4,5-trimethylpiperazin-1-yl)benzamide], the 50% inhibitory concentration (IC50) was found to be 2 nM.
Same read-out and setting: as for `C[C@@H]1CN(c2ccc(C(=O)Nc3ccc(Cl)c(-c4ncc(-c5cccn5C)[nH]4)c3)c(Cl)c2)C[C@H](C)N1C` [Example 162, N-(3-(5-(1-methyl-1H-pyrrol-2-yl)-1H-imidazol-2-yl)-4-chlorophenyl)-2-chloro-4-((3S,5R)-3,4,5-trimethylpiperazin-1-yl)benzamide], the figure is 0.3 nM; as for `CCc1cnc(-c2cc(NC(=O)c3ccc(N4C[C@@H](C)N(C)[C@@H](C)C4)c(F)c3C)ccc2Cl)[nH]1` [Example 168, N-(3-(5-ethyl-1H-imidazol-2-yl)-4-chlorophenyl)-2-methyl-3-fluoro-4-((3S,5R)-3,4,5-trimethylpiperazin-1-yl)benzamide], 0.38 nM; as for `C[C@@H]1CN(c2cc(Cl)c(C(=O)Nc3ccc(Cl)c(-c4ncc(C5CC5)[nH]4)c3)cc2F)C[C@H](C)N1C` [Example 193, N-(3-(5-cyclopropyl-1H-imidazol-2-yl)-4-chlorophenyl)-2-chloro-5-fluoro-4-((3S,5R)-3,4,5-trimethylpiperazin-1-yl)benzamide Dihydrochloride], 0.56 nM.
The same measure, in the same setting: for `Cc1cc(N2C[C@@H](C)N(C)[C@@H](C)C2)ccc1C(=O)Nc1ccc(Cl)c(-c2ncc(-c3cccn3C)[nH]2)c1` [Example 161, N-(3-(5-(1-methyl-1H-pyrrol-2-yl)-1H-imidazol-2-yl)-4-chlorophenyl)-2-methyl-4-((3S,5R)-3,4,5-trimethylpiperazin-1-yl)benzamide] the value was 0.38 nM; for `CC(C)c1cnc(-c2cc(NC(=O)c3ccc(N4C[C@@H](C)N(C)[C@@H](C)C4)cc3C(F)(F)F)ccc2Cl)[nH]1` [Example 171, N-(3-(5-isopropyl-1H-imidazol-2-yl)-4-chlorophenyl)-2-(trifluoro-methyl)-4-((3S,5R)-3,4,5-trimethylpiperazin-1-yl)benzamide], 0.46 nM; for `CCN1[C@H](C)CN(c2ccc(C(=O)Nc3ccc(Cl)c(-c4nc5cscc5[nH]4)c3)c(Cl)c2)C[C@@H]1C` [Example 203, N-(3-(1H-thieno[3,4-d]imidazol-2-yl)-4-chlorophenyl)-2-chloro-4-((3S,5R)-4-ethyl-3,5-dimethylpiperazin-1-yl)benzamide], 0.29 nM.
Take `CCc1cnc(-c2cc(NC(=O)c3ccc(N4C[C@@H](C)N(C)[C@@H](C)C4)cc3C(F)(F)F)ccc2Cl)[nH]1` [Example 167, N-(3-(5-ethyl-1H-imidazol-2-yl)-4-chlorophenyl)-2-(trifluoromethyl)-4-((3S,5R)-3,4,5-trimethylpiperazin-1-yl)benzamide]: the IC50 is 28 nM.
As to `CCN1[C@H](C)CN(c2ccc(C(=O)Nc3ccc(Cl)c(-c4ncc(-c5ccsc5)[nH]4)c3)c(Cl)c2)C[C@@H]1C` [Example 165, N-(3-(5-(thiophen-3-yl)-1H-imidazol-2-yl)-4-chlorophenyl)-2-chloro-4-((3S,5R)-4-ethyl-3,5-dimethylpiperazin-1-yl)benzamide Dihydrochloride], the concentration for half-maximal inhibition (IC50) is 0.19 nM.
Same read-out and setting: for `Cc1c(C(=O)Nc2ccc(Cl)c(-c3ncc(C(C)C)[nH]3)c2)ccc(N2C[C@@H](C)N(C)[C@@H](C)C2)c1F` [Example 190, N-(3-(5-isopropyl-1H-imidazol-2-yl)-4-chlorophenyl)-2-methyl-3-fluoro-4-((3S,5R)-3,4,5-trimethylpiperazin-1-yl)benzamide Dihydrochloride] the value was 0.2 nM.
On the same count and under the same terms, as for `C[C@@H]1CN(c2cc(Cl)c(C(=O)Nc3ccc(Cl)c(-c4ncc(-c5ccsc5)[nH]4)c3)cc2F)C[C@H](C)N1C` [Example 142, N-(3-(5-(thiophen-3-yl)-1H-imidazol-2-yl)-4-chlorophenyl)-2-chloro-5-fluoro-4-((3S,5R)-3,4,5-trimethylpiperazin-1-yl)benzamide], the figure is 0.28 nM.
Same read-out and setting: for `Cc1cnc(-c2cc(NC(=O)c3ccc(N4C[C@@H](C)N(C)[C@@H](C)C4)cc3C)ccc2Cl)[nH]1` [Example 186, N-(3-(5-methyl-1H-imidazol-2-yl)-4-chlorophenyl)-2-methyl-4-((3S,5R)-3,4,5-trimethylpiperazin-1-yl)benzamide Dihydrochloride] the value was 3.4 nM.
As to `CCc1cnc(-c2cc(NC(=O)c3ccc(N4C[C@@H](C)N(C)[C@@H](C)C4)cc3Cl)ccc2Cl)[nH]1` [Example 188, N-(3-(5-ethyl-1H-imidazol-2-yl)-4-chlorophenyl)-2-chloro-4-((3S,5R)-3,4,5-trimethylpiperazin-1-yl)benzamide Dihydrochloride], the concentration for half-maximal inhibition (IC50) was 1 nM.
Still for that read-out and setting: as for `CCN1[C@H](C)CN(c2ccc(C(=O)Nc3ccc(Cl)c(-c4ncc(C5CC5)[nH]4)c3)c(Cl)c2)C[C@@H]1C` [Example 194, N-(3-(5-cyclopropyl-1H-imidazol-2-yl)-4-chlorophenyl)-2-chloro-4-((3S,5R)-4-ethyl-3,5-dimethylpiperazin-1-yl)benzamide Dihydrochloride], the figure is 0.63 nM; as for `Cc1ccc(-c2cnc(-c3cc(NC(=O)c4ccc(N5C[C@@H](C)N(C)[C@@H](C)C5)cc4C)ccc3Cl)[nH]2)o1` [Example 152, N-(3-(5-(5-methylfuran-2-yl)-1H-imidazol-2-yl)-4-chlorophenyl)-2-methyl-4-((3S,5R)-3,4,5-trimethylpiperazin-1-yl)benzamide], 1.2 nM.
The same measure, in the same setting: as for `CC(C)c1cnc(-c2cc(NC(=O)c3cc(F)c(N4C[C@@H](C)N(C)[C@@H](C)C4)cc3Cl)ccc2Cl)[nH]1` [Example 191, N-(3-(5-isopropyl-1H-imidazol-2-yl)-4-chlorophenyl)-2-chloro-5-fluoro-4-((3S,5R)-3,4,5-trimethylpiperazin-1-yl)benzamide Dihydrochloride], the figure is 0.34 nM; as for `CCN1[C@H](C)CN(c2ccc(C(=O)Nc3ccc(Cl)c(-c4ncc(-c5ccco5)[nH]4)c3)c(Cl)c2)C[C@@H]1C` [Example 150, N-(3-(5-(furan-2-yl)-1H-imidazol-2-yl)-4-chlorophenyl)-2-chloro-4-((3S,5R)-4-ethyl-3,5-dimethylpiperazin-1-yl)benzamide], 0.5 nM; as for `CCc1cnc(-c2cc(NC(=O)c3ccc(N4C[C@@H](C)N(C)[C@@H](C)C4)cc3C)ccc2Cl)[nH]1` [Example 187, N-(3-(5-ethyl-1H-imidazol-2-yl)-4-chlorophenyl)-2-methyl-4-((3S,5R)-3,4,5-trimethylpiperazin-1-yl)benzamide Dihydrochloride], 0.45 nM.
